Measurements reported in ChEMBL document CHEMBL3046161, “Synthesis of potential antitubercular and antimicrobial s-triazine-based scaffolds via Suzuki cross-coupling reaction” (2013).
In brackets after ≈: the same amount, converted by molar mass.

How the values were obtained:
Assay type in all cases: functional
[1] = system: Salmonella typhi; experiment: Antibacterial activity against Salmonella enterica subsp. enterica serovar Typhi MTCC 733 assessed as growth inhibition at 3.12 to 50 ug/mL after 24 hr by agar disk diffusion method
[2] = system: Klebsiella pneumoniae; experiment: Antibacterial activity against Klebsiella pneumoniae MTCC 109 assessed as growth inhibition at 3.12 to 50 ug/mL after 24 hr by agar disk diffusion method
[3] = system: Klebsiella pneumoniae; experiment: Antibacterial activity against Klebsiella pneumoniae MTCC 109 assessed as growth inhibition after 24 hr by agar streak dilution method; settings: MTCC 109, 24 h
[4] = system: Salmonella typhi; experiment: Antibacterial activity against Salmonella enterica subsp. enterica serovar Typhi MTCC 733 assessed as growth inhibition after 24 hr by agar streak dilution method; settings: MTCC 733, 24 h
[5] = system: Pseudomonas aeruginosa; experiment: Antibacterial activity against Pseudomonas aeruginosa MTCC 741 assessed as growth inhibition after 24 hr by agar streak dilution method; settings: MTCC 741, 24 h
[6] = system: Escherichia coli; experiment: Antibacterial activity against Escherichia coli MTCC 739 assessed as growth inhibition after 24 hr by agar streak dilution method; settings: MTCC 739, 24 h
[7] = system: Bacillus cereus; experiment: Antibacterial activity against Bacillus cereus MTCC 430 assessed as growth inhibition after 24 hr by agar streak dilution method; settings: MTCC 430, 24 h
[8] = system: Staphylococcus aureus; experiment: Antibacterial activity against Staphylococcus aureus MTCC 96 assessed as growth inhibition after 24 hr by agar streak dilution method; settings: MTCC 96, 24 h
[9] = system: Mycobacterium tuberculosis; experiment: Antimycobacterial activity against Mycobacterium tuberculosis H37Rv assessed as growth inhibition at MIC after 12 to 28 days by Lowenstein and Jensen agar dilution method
[10] = system: Mycobacterium tuberculosis; experiment: Antimycobacterial activity against Mycobacterium tuberculosis H37Rv assessed as growth inhibition after 12 to 28 days by Lowenstein and Jensen agar dilution method
[11] = system: Mycobacterium tuberculosis; experiment: Antimycobacterial activity against Mycobacterium tuberculosis H37Rv assessed as growth inhibition measured within 10 days by BACTEC MGIT method; settings: 240 h
[12] = system: Candida albicans; experiment: Antifungal activity against Candida albicans MTCC 183 assessed as growth inhibition at 3.12 to 50 ug/mL after 24 hr by agar disk diffusion method
[13] = system: Aspergillus clavatus; experiment: Antifungal activity against Aspergillus clavatus MTCC 1323 assessed as growth inhibition at 3.12 to 50 ug/mL after 24 hr by agar disk diffusion method
[14] = system: Aspergillus fumigatus; experiment: Antifungal activity against Aspergillus fumigatus MTCC 343 assessed as growth inhibition at 3.12 to 50 ug/mL after 24 hr by agar disk diffusion method
[15] = system: Aspergillus niger; experiment: Antifungal activity against Aspergillus niger MTCC 282 assessed as growth inhibition at 3.12 to 50 ug/mL after 24 hr by agar disk diffusion method
[16] = system: Candida albicans; experiment: Antifungal activity against Candida albicans MTCC 183 assessed as growth inhibition after 48 hr by agar streak dilution method; settings: MTCC 183, 48 h
[17] = system: Aspergillus clavatus; experiment: Antifungal activity against Aspergillus clavatus MTCC 1323 assessed as growth inhibition after 48 hr by agar streak dilution method; settings: MTCC 1323, 48 h
[18] = system: Aspergillus fumigatus; experiment: Antifungal activity against Aspergillus fumigatus MTCC 343 assessed as growth inhibition after 48 hr by agar streak dilution method; settings: MTCC 343, 48 h
[19] = system: Aspergillus niger; experiment: Antifungal activity against Aspergillus niger MTCC 282 assessed as growth inhibition after 48 hr by agar streak dilution method; settings: MTCC 282, 48 h
[20] = system: Shigella flexneri; experiment: Antibacterial activity against Shigella flexneri MTCC 1457 assessed as growth inhibition at 3.12 to 50 ug/mL after 24 hr by agar disk diffusion method
[21] = system: Proteus vulgaris; experiment: Antibacterial activity against Proteus vulgaris MTCC 1771 assessed as growth inhibition at 3.12 to 50 ug/mL after 24 hr by agar disk diffusion method
[22] = system: Pseudomonas aeruginosa; experiment: Antibacterial activity against Pseudomonas aeruginosa MTCC 741 assessed as growth inhibition at 3.12 to 50 ug/mL after 24 hr by agar disk diffusion method
[23] = system: Escherichia coli; experiment: Antibacterial activity against Escherichia coli MTCC 739 assessed as growth inhibition at 3.12 to 50 ug/mL after 24 hr by agar disk diffusion method
[24] = system: Bacillus cereus; experiment: Antibacterial activity against Bacillus cereus MTCC 430 assessed as growth inhibition at 3.12 to 50 ug/mL after 24 hr by agar disk diffusion method
[25] = system: Staphylococcus aureus; experiment: Antibacterial activity against Staphylococcus aureus MTCC 96 assessed as growth inhibition at 3.12 to 50 ug/mL after 24 hr by agar disk diffusion method
[26] = system: Shigella flexneri; experiment: Antibacterial activity against Shigella flexneri MTCC 1457 assessed as growth inhibition after 24 hr by agar streak dilution method; settings: MTCC 1457, 24 h
[27] = system: Proteus vulgaris; experiment: Antibacterial activity against Proteus vulgaris MTCC 1771 assessed as growth inhibition after 24 hr by agar streak dilution method; settings: MTCC 1771, 24 h

Compound | inhibition zone (IZ) [1] [mm] | inhibition zone (IZ) [2] [mm] | MIC [3] [µg/mL] | MIC [4] [µg/mL] | MIC [5] [µg/mL] | MIC [6] [µg/mL] | MIC [7] [µg/mL] | MIC [8] [µg/mL] | growth inhibition (GI) [9] [%] | MIC [10] [µg/mL] | MIC [11] [µg/mL] | inhibition zone (IZ) [12] [mm] | inhibition zone (IZ) [13] [mm] | inhibition zone (IZ) [14] [mm] | inhibition zone (IZ) [15] [mm] | MIC [16] [µg/mL] | MIC [17] [µg/mL] | MIC [18] [µg/mL] | MIC [19] [µg/mL] | inhibition zone (IZ) [20] [mm] | also measured
CC1CC(C)CN(c2nc(-c3ccc(NCC(=O)Nc4nc5ccc([N+](=O)[O-])cc5s4)cc3)nc(N3CC(C)CC(C)C3)n2)C1 (stereo not drawn) | 19 | 18 | 50 (≈ 79.4 µM) | 50 (≈ 79.4 µM) | 50 (≈ 79.4 µM) | 50 (≈ 79.4 µM) | 12.5 (≈ 19.8 µM) | 12.5 (≈ 19.8 µM) | 98 | 50 (≈ 79.4 µM) | > 6.25 | 16 | 28 | 22 | 23 | 50 (≈ 79.4 µM) | 25 (≈ 39.7 µM) | 50 (≈ 79.4 µM) | 12.5 (≈ 19.8 µM) | 21 | inhibition zone (IZ) [21]: 19 mm; inhibition zone (IZ) [22]: 18 mm; inhibition zone (IZ) [23]: 18 mm; inhibition zone (IZ) [24]: 26 mm; inhibition zone (IZ) [25]: 22 mm; MIC [26]: 50 µg/mL (≈ 79.4 µM); MIC [27]: 50 µg/mL (≈ 79.4 µM)
CC1CC(C)CN(c2nc(-c3ccc(NCC(=O)Nc4nc5ccc(C#N)cc5s4)cc3)nc(N3CC(C)CC(C)C3)n2)C1 (stereo not drawn) | 18 | 27 | 25 (≈ 41 µM) | 50 (≈ 82 µM) | 50 (≈ 82 µM) | 6.25 (≈ 10.2 µM) | 50 (≈ 82 µM) | 6.25 (≈ 10.2 µM) | 95 | 100 (≈ 164 µM) | > 6.25 | <10 | 16 | 22 | 19 | > 50 | 50 (≈ 82 µM) | 50 (≈ 82 µM) | 25 (≈ 41 µM) | 22 | inhibition zone (IZ) [21]: 22 mm; inhibition zone (IZ) [22]: 18 mm; inhibition zone (IZ) [23]: 25 mm; inhibition zone (IZ) [24]: 22 mm; inhibition zone (IZ) [25]: 24 mm; MIC [26]: 50 µg/mL (≈ 82 µM); MIC [27]: 25 µg/mL (≈ 41 µM)
Cc1ccc2nc(NC(=O)CNc3ccc(-c4nc(N5CC(C)CC(C)C5)nc(N5CC(C)CC(C)C5)n4)cc3)sc2c1 (stereo not drawn) | <10 | 16 | 50 (≈ 83.5 µM) | 50 (≈ 83.5 µM) | 50 (≈ 83.5 µM) | 50 (≈ 83.5 µM) | 50 (≈ 83.5 µM) | 50 (≈ 83.5 µM) | 97 | 250 (≈ 417 µM) | > 6.25 | 13 | <10 | <10 | <10 | 50 (≈ 83.5 µM) | > 50 | > 50 | 50 (≈ 83.5 µM) | 12 | inhibition zone (IZ) [21]: 20 mm; inhibition zone (IZ) [22]: 15 mm; inhibition zone (IZ) [23]: 16 mm; inhibition zone (IZ) [24]: 19 mm; inhibition zone (IZ) [25]: 15 mm; MIC [26]: 50 µg/mL (≈ 83.5 µM); MIC [27]: 50 µg/mL (≈ 83.5 µM)
COc1ccc2nc(NC(=O)CNc3ccc(-c4nc(N5CC(C)CC(C)C5)nc(N5CC(C)CC(C)C5)n4)cc3)sc2c1 (stereo not drawn) | 20 | 23 | 50 (≈ 81.3 µM) | 50 (≈ 81.3 µM) | 50 (≈ 81.3 µM) | 25 (≈ 40.7 µM) | 12.5 (≈ 20.3 µM) | 1.56 (≈ 2.54 µM) | 98 | 12.5 (≈ 20.3 µM) | > 6.25 | 25 | 23 | <10 | 19 | 12.5 (≈ 20.3 µM) | 50 (≈ 81.3 µM) | > 50 | 25 (≈ 40.7 µM) | 25 | inhibition zone (IZ) [21]: 27 mm; inhibition zone (IZ) [22]: 20 mm; inhibition zone (IZ) [23]: 20 mm; inhibition zone (IZ) [24]: 25 mm; inhibition zone (IZ) [25]: 26 mm; MIC [26]: 12.5 µg/mL (≈ 20.3 µM); MIC [27]: 6.25 µg/mL (≈ 10.2 µM)
